In ChEMBL document CHEMBL5154755, “Discovery of Novel Indazoles as Potent and Selective PI3Kδ Inhibitors with High Efficacy for Treatment of Hepatocellular Carcinoma” (J Med Chem, 2022):
Active and inactive are the calls of the source. The calls are words filed in the database; no cut-off is given here.

Key:
[1] = system: Bel-7402; experiment: Antiproliferative activity against human Bel-7402 cells assessed as inhibition of cell growth incubated for 72 hrs by SRB assay; type: functional, cell-based; details: Bel-7402, 72 h
[2] = system: Hep 3B2; experiment: Antiproliferative activity against human Hep3B cells assessed as inhibition of cell growth incubated for 72 hrs by SRB assay; type: functional, cell-based
[3] = system: Bel-7402; experiment: Induction of apoptosis in human Bel-7402 cells assessed as increase in apoptotic cells at 50 uM for 24 hrs by TUNEL staining method; type: functional, cell-based
[4] = system: Bel-7402; experiment: cells; details: Homo sapiens, Bel-7402, 72 h, read-out: INH
[5] = system: HepG2; experiment: cells; details: Homo sapiens, HepG2, 72 h, read-out: INH
[6] = system: Hep 3B2; experiment: cells; details: Homo sapiens, Hep3B, 72 h, read-out: INH
[7] = system: HepG2; experiment: cells; details: Homo sapiens, HepG2, 72 h
Description: Antiproliferative activity against human HepG2 cells assessed as inhibition of cell growth incubated for 72 hrs by SRB assay

[8] = system: Bel-7402; experiment: animal or person; details: Mus musculus, Bel-7402, po, 336 h, read-out: INH
[9] = system: Bel-7402; experiment: Antitumor activity against human Bel-7402 cells xenografted in BAlb/c (nu/nu) mouse assessed as inhibition rate at 30 mg/kg, po daily measured after 14 days; type: functional; details: Bel-7402, 336 h, time 14 day
[10] = system: Bel-7402; experiment: Antitumor activity against human Bel-7402 cells xenografted in BAlb/c (nu/nu) mouse assessed as T/C ratio at 30 mg/kg, po daily measured after 14 days; type: functional; details: time 14 day
[11] = system: Bel-7402; experiment: Antitumor activity against human Bel-7402 cells xenografted in Balb/c (nu/nu) mouse assessed as tumor weight at 30 mg/kg, po qd after 14 days (Rvb=0.65 +/- 0.06 g); type: functional; details: time 14 day
[12] = system: Bel-7402; experiment: Antitumor activity against human Bel-7402 cells xenografted in Balb/c (nu/nu) mouse assessed as relative tumor volume at 30 mg/kg, po qd after 14 days (Rvb=25.69+/-2.73); type: functional; details: time 14 day
[13] = system: HepG2; experiment: Induction of apoptosis in human HepG2 cells assessed as increase in expression of cleaved caspase-3 at 1.5625 to 50 uM incubated for 24 hrs by Western blotting analysis; type: functional, cell-based; details: dose 1.5625-50 µM, DDE = dose-dependent effect
[14] = Toxicity in Balb/c (nu/nu) mouse xenografted with human Bel-7402 cells assessed as change in body weight at 20 to 40 mg/kg, po daily after 14 days; type: organism-based; details: in vivo, 336 h, dose 20-40 mg/kg, time 14 day
[15] = target: Phosphatidylinositol 4,5-bisphosphate 3-kinase catalytic subunit alpha isoform (Homo sapiens, UniProt P42336); experiment: Inhibition of PI3Kalpha (unknown origin) using PIP2 as substrate incubated for 1 hr in presence of ATP by ADP-Glo assay
[16] = target: Phosphatidylinositol 4,5-bisphosphate 3-kinase catalytic subunit beta isoform (Homo sapiens, UniProt P42338); experiment: Inhibition of PI3Kbeta (unknown origin) using PIP2 as substrate incubated for 1 hr in presence of ATP by ADP-Glo assay
[17] = target: Phosphatidylinositol 4,5-bisphosphate 3-kinase catalytic subunit gamma isoform (Homo sapiens, UniProt P48736); experiment: Inhibition of PI3Kgamma (unknown origin) using PIP2 as substrate incubated for 1 hr in presence of ATP by ADP-Glo assay
[18] = system: HepG2; experiment: Induction of apoptosis in human HepG2 cells assessed as increase in expression of cleaved PARP at 1.5625 to 50 uM incubated for 24 hrs by Western blotting analysis; type: functional, cell-based; details: dose 1.5625-50 µM, DDE = dose-dependent effect
[19] = system: Bel-7402; experiment: Induction of apoptosis in human Bel-7402 cells assessed as increase in apoptotic cells at 12.5 to 50 uM for 24 hrs by TUNEL staining method; type: functional, cell-based; details: dose 12.5-50 µM
[20] = system: Bel-7402; experiment: Induction of apoptosis in human Bel-7402 cells assessed as decrease in EGf dependent Akt phosphorylation at serine 473 residue at 0.3 to 10 uM measured after 24 hrs by western blotting analysis; type: functional, cell-based; details: dose 0.3-10 µM, DDE = dose-dependent effect
[21] = system: Bel-7402; experiment: Induction of apoptosis in human Bel-7402 cells assessed as decrease in EGf dependent Akt phosphorylation at threonine 308 residue at 0.3 to 10 uM measured after 24 hrs by western blotting analysis; type: functional, cell-based; details: dose 0.3-10 µM, DDE = dose-dependent effect
[22] = system: HepG2; experiment: Induction of apoptosis in human HepG2 cells assessed as decrease in EGf dependent Akt phosphorylation at serine 473 residue at 0.3 to 10 uM measured after 24 hrs by western blotting analysis; type: functional, cell-based; details: dose 0.3-10 µM, DDE = dose-dependent effect
[23] = system: HepG2; experiment: Induction of apoptosis in human HepG2 cells assessed as decrease in EGf dependent Akt phosphorylation at threonine 308 residue at 0.3 to 10 uM measured after 24 hrs by western blotting analysis; type: functional, cell-based; details: dose 0.3-10 µM, DDE = dose-dependent effect
[24] = system: Bel-7402; experiment: Induction of apoptosis in human Bel-7402 cells xenografted in Balb/c (nu/nu) mouse assessed as increase in expression of cleaved PARP at 20 to 40 mg/kg, po daily after 14 days by western blot analysis; type: functional, organism-based; details: dose 20-40 mg/kg, time 14.0 day
[25] = system: Bel-7402; experiment: Induction of apoptosis in human Bel-7402 cells xenografted in Balb/c (nu/nu) mouse assessed as increase in expression of cleaved caspase-3 at 20 to 40 mg/kg, po daily after 14 days by western blot analysis; type: functional, organism-based; details: dose 20-40 mg/kg, time 14.0 day
[26] = system: Bel-7402; experiment: Induction of apoptosis in human Bel-7402 cells xenografted in Balb/c (nu/nu) mouse assessed as decrease in phosphorylation of Akt at serine 473 residue at 20 to 40 mg/kg, po daily after 14 days by western blot analysis; type: functional, organism-based; details: dose 20-40 mg/kg, time 14.0 day
[27] = system: Bel-7402; experiment: Induction of apoptosis in human Bel-7402 cells xenografted in Balb/c (nu/nu) mouse assessed as increase in apoptotic cells at 20 to 40 mg/kg, po daily after 14 days by DAPI staining based assay; type: functional, organism-based; details: dose 20-40 mg/kg, time 14.0 day
[28] = system: Bel-7402; experiment: Induction of apoptosis in human Bel-7402 cells xenografted in Balb/c (nu/nu) mouse assessed as decrease in cell proliferation at 20 to 40 mg/kg, po daily after 14 days by Ki-67 staining based immunohistochemical analysis; type: functional, organism-based; details: dose 20-40 mg/kg, time 14.0 day
[29] = system: Bel-7402; experiment: Induction of apoptosis in human Bel-7402 cells assessed as increase in expression of cleaved PARP at 1.5625 to 50 uM incubated for 24 hrs by Western blotting analysis; type: functional, cell-based; details: dose 1.5625-50 µM, DDE = dose-dependent effect
[30] = system: Bel-7402; experiment: Induction of apoptosis in human Bel-7402 cells assessed as increase in expression of cleaved caspase-3 at 1.5625 to 50 uM incubated for 24 hrs by Western blotting analysis; type: functional, cell-based; details: dose 1.5625-50 µM, DDE = dose-dependent effect

Chain of Phosphatidylinositol 4,5-bisphosphate 3-kinase catalytic subunit alpha isoform (P42336 whole entry, canonical isoform): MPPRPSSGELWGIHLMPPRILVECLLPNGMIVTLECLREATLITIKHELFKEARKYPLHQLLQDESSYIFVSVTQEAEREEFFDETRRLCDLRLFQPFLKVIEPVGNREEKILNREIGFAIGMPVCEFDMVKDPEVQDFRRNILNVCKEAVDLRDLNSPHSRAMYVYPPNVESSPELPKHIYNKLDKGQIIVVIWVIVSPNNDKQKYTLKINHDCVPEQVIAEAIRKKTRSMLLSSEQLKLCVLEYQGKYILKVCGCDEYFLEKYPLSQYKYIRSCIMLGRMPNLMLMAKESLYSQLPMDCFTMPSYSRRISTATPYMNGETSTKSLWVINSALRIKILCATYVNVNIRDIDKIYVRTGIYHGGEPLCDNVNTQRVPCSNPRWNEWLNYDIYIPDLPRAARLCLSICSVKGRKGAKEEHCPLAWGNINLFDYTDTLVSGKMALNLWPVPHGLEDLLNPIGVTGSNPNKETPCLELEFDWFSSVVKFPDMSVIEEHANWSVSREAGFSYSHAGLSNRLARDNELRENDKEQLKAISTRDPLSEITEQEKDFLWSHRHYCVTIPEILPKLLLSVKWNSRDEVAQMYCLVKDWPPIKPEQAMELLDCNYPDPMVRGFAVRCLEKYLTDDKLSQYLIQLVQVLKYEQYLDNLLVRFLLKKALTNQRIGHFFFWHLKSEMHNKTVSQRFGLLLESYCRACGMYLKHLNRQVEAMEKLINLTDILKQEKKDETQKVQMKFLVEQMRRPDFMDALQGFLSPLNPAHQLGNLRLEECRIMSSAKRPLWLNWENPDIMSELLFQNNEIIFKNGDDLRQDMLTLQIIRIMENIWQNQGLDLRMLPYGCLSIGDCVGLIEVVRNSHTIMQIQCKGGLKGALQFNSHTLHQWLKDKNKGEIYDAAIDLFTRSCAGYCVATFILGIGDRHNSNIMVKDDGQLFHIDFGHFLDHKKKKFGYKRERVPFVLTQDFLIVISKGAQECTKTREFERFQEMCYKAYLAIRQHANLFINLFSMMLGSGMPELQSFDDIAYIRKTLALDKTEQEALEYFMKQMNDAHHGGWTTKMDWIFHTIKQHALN
Chain of Phosphatidylinositol 4,5-bisphosphate 3-kinase catalytic subunit beta isoform (P42338 whole entry, canonical isoform): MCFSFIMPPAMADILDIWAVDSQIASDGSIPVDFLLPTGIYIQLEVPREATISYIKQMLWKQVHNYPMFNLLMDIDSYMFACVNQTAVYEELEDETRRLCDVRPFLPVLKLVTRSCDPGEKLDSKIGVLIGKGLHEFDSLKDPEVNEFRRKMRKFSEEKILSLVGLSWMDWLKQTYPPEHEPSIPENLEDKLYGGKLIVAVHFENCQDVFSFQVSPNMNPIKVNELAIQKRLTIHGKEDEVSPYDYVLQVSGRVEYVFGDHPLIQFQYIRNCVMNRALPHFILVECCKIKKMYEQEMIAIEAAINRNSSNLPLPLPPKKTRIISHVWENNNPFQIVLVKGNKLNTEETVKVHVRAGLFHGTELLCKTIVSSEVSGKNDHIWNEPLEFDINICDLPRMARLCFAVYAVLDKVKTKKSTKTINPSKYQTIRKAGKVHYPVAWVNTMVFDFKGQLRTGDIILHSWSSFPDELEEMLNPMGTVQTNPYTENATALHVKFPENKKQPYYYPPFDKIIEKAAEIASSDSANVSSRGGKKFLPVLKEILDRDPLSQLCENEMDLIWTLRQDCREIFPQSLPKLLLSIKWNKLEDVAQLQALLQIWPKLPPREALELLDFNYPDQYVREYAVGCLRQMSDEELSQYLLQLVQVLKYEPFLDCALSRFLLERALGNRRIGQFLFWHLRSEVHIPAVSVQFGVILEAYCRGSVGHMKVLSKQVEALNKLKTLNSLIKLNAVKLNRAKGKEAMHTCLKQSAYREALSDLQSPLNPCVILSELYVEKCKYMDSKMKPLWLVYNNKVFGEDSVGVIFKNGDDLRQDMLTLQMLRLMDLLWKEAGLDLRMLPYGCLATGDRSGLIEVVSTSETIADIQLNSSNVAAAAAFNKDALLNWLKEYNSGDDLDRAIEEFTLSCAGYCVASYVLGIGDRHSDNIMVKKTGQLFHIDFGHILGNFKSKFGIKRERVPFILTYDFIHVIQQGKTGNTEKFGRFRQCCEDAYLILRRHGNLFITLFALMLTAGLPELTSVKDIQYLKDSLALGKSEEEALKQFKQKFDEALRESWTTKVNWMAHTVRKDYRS
Chain of Phosphatidylinositol 4,5-bisphosphate 3-kinase catalytic subunit gamma isoform (P48736 whole entry, canonical isoform): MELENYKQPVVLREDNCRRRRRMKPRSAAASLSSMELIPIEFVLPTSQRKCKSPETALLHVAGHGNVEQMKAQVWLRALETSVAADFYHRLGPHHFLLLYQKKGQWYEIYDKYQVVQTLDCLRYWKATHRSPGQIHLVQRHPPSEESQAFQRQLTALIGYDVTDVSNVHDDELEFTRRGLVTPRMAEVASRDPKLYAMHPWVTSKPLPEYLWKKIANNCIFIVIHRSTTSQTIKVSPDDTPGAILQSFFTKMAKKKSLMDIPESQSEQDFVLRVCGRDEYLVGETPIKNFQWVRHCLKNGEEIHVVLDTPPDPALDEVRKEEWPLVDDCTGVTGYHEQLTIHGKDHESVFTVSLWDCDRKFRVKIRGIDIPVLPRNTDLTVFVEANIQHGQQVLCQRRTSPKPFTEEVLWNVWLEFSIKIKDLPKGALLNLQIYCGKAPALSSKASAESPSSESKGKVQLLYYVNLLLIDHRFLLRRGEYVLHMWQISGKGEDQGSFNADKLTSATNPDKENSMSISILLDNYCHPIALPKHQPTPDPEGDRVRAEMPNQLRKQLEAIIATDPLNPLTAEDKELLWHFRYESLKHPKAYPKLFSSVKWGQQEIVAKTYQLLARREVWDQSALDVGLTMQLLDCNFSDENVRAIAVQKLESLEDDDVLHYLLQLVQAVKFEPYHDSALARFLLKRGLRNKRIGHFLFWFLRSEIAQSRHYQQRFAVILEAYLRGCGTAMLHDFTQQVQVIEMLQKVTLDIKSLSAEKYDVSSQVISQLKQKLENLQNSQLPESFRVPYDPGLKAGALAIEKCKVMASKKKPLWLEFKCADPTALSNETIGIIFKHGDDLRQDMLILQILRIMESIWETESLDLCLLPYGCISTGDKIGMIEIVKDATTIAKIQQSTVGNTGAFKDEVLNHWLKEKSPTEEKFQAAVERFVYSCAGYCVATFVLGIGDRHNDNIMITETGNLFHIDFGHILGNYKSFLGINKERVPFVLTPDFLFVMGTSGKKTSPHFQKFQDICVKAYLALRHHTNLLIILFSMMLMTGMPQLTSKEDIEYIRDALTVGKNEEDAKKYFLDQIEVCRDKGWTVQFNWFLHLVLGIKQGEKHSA

With CC[C@H](Nc1ncnc2[nH]cnc12)c1nc2cccc(F)c2c(=O)n1-c1ccccc1 [IDELALISIB] the IC50 [1] was 66.2 µM, the IC50 [2] was 77.5 µM and the Activity [3] was “Active”. The inhibition at 10 µM [4] was 9%, the inhibition at 10 µM [5] was 20% and the inhibition at 10 µM [6] was 21%. The IC50 [7] was 89.5 µM and the inhibition in vivo at 40 mg/kg [8] was 44.6%.
In the case of CNC(=O)c1cc(Oc2ccc(NC(=O)Nc3ccc(Cl)c(C(F)(F)F)c3)cc2)ccn1 [SORAFENIB], the inhibition in vivo at 30 mg/kg [9] is reported as 51.3%, the T/C [10] is reported as 45.13% and the Activity [11] is reported as 0.32 g. The Activity [12] was 11.6.
In the case of C[C@H](Nc1nc(N)nc(N)c1C#N)c1nn(-c2cccnc2)c2cc(Cl)ccc12, the Activity [13] is reported as “Dde”, the Activity [14] is reported as “Non-Toxic” and the IC50 [15] is reported as over 1000 nM. For the same compound, the IC50 [16] was 41 nM, the IC50 [17] was 275 nM and the IC50 [1] was 1.36 µM. For the same compound, the IC50 [2] was 1.09 µM, the Activity [18] was “Dde” and the Activity [19] was “Active”. The Activity [20] was “Dde”, the Activity [21] was “Dde” and the Activity [22] was “Dde”. For the same compound, the Activity [23] was “Dde”, the Activity [24] was “Active” and the Activity [25] was “Active”. For the same compound, the Activity [26] was “Active”, the Activity [27] was “Active” and the Activity [28] was “Active”. The Activity [29] was “Dde”, the Activity [30] was “Dde” and the IC50 [7] was 0.53 µM.
